pEC50 data for 28 compounds are collected here from US11746100B2 (GLOBAL BLOOD THERAPEUTICS, INC., priority 2020, dated 2023).

The structures appear in SMILES notation.

As usually defined, the pEC50 is −log10 of the EC50, conventionally taken in molar units.

For this assay, the target named is T1, human ferroportin (Homo sapiens, UniProt Q9NP59).
T1 construct: luciferase reporter (read with the Nano-Glo Luciferase Assay System); expressed in transfected cells; host or cells: CHO cells, stably transfected, expression induced with doxycycline
T1 sequence (Q9NP59 1-571): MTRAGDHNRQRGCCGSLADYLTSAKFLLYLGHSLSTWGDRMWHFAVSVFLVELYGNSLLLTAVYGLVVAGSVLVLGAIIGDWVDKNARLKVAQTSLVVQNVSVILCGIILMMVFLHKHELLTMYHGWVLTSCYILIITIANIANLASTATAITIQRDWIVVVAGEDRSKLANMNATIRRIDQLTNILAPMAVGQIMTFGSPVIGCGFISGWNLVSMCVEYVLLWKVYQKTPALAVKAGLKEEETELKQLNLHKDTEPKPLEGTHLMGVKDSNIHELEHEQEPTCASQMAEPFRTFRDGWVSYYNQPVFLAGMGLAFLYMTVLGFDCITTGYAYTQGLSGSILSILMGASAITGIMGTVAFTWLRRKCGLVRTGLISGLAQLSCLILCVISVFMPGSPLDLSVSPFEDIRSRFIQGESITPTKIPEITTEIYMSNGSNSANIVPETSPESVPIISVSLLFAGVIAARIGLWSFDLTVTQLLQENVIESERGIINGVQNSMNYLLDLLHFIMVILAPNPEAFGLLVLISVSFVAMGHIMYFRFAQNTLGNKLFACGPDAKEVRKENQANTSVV
In words: Biological in-vitro ferroportin internalization assay (luciferase reporter). It is filed as cell-based. The following applies: average pEC50; stably-transfected CHO cell line expressing human ferroportin tagged to a luciferase reporter; 6 h incubation with test compound. In outline:
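Read-out is Nano-Glo luciferase signal after 6 h compound exposure, with average pEC50 derived. Cells are a stable CHO line carrying luciferase-tagged human ferroportin, pre-loaded 24 h with ferric ammonium citrate and doxycycline-induced for 24 h.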
A general note: Reporter assays use an easily measured gene product as a stand-in for the process of interest.
`CCN(Cc1ncccn1)c1nc(-c2ccccn2)nc2c1CCC2` [Compound 80, N-ethyl-2-(pyridin-2-yl)-N-[(pyrimidin-2-yl)methyl]-5H,6H,7H-cyclopenta[d]pyrimidin-4-amine] gave a pEC50 of 6.8.
Then `CN(CC(=O)NC(C)(C)C)c1nc(-c2ccccn2)nc2c1CCCC2` [Compound 23, N-tert-butyl-2-{methyl[2-(pyridin-2-yl)-5,6,7,8-tetrahydroquinazolin-4-yl]amino}acetamide], with 6.9; and `C[C@H](C(=O)Nc1ccc(C(F)(F)F)nc1)N(C)c1nc(-c2cc3ccccc3cn2)nc2c1CCC2` [Compound 274, (2R)-2-{[2-(isoquinolin-3-yl)-5H,6H,7H-cyclopenta[d]pyrimidin-4-yl](methyl)amino}-N-[6-(trifluoromethyl)pyridin-3-yl]propanamide], with 6.8.
With `CN(CC(=O)Nc1cn(C)cn1)c1nc(-c2cc3ccccc3cn2)nc2c1CCC2` [Compound 236, 2-{[2-(isoquinolin-3-yl)-5H,6H,7H-cyclopenta[d]pyrimidin-4-yl](methyl)amino}-N-(1-methyl-1H-imidazol-4-yl)acetamide], the negative-log EC50 (pEC50) was 7.4.
The compound `Cc1cc(NC(=O)CN(C)c2nc(-c3cc(OCCO)ccn3)nc3c2CCC3)sn1` [Compound 350, 2-({2-[4-(2-hydroxyethoxy)pyridin-2-yl]-5H,6H,7H-cyclopenta[d]pyrimidin-4-yl}(methyl)amino)-N-(3-methyl-1,2-thiaozl-5-yl)acetamide] gave a pEC50 of 7.7.
`COc1cc2c(cn1)N(C(=O)CN(C)c1nc(-c3cc(OCCO)ccn3)nc3c1CCC3)CC2` [Compound 375, 2-({2-[4-(2-hydroxyethoxy)pyridin-2-yl]-5H,6H,7H-cyclopenta[d]pyrimidin-4-yl}(methyl)amino)-1-{5-methoxy-1H,2H,3H-pyrrolo[2,3-c]pyridin-1-yl}ethan-1-one]: the negative logarithm of the EC50 (pEC50) is 8.
Then `COc1ccc(NC(=O)CN(C)c2nc(-c3cc(OC)ccn3)nc3c2CCC3)nc1` [Compound 152, N-(5-methoxypyridin-2-yl)-2-{[2-(4-methoxypyridin-2-yl)-5H,6H,7H-cyclopenta[d]pyrimidin-4-yl](methyl)amino}acetamide], with 7.9; and `CC(C)(C)NC(=O)CNc1nc(-c2ccccn2)nc2c1CCCC2` [Compound 10, N-tert-butyl-2-{[2-(pyridin-2-yl)-5,6,7,8-tetrahydroquinazolin-4-yl]amino}acetamide], with 6.6.
`Cc1cnc(-c2nc3c(c(N(C)CC(=O)NC(C)(C)C)n2)CCC3)cc1C` [Compound 60, N-tert-butyl-2-{[2-(4,5-dimethylpyridin-2-yl)-5H,6H,7H-cyclopenta[d]pyrimidin-4-yl](methyl)amino}acetamide] showed a pEC50 of 7.6.
The compound `COc1ccnc(-c2nc3c(c(N(C)CC(=O)N[C@H]4CCC[C@H]4O)n2)CCC3)c1` [Compound 171, N-[(1S,2R)-2-hydroxycyclopentyl]-2-{[2-(4-methoxypyridin-2-yl)-5H,6H,7H-cyclopenta[d]pyrimidin-4-yl](methyl)amino}acetamide] came in with a pEC50 of 7.2.
As for `CN(CC(=O)NC(C)(C)C)c1nc(-c2cc(-c3cnn(C)c3)ccn2)nc2c1CCC2` [Compound 352, N-tert-butyl-2-[methyl({2-[4-(1-methyl-1H-pyrazol-4-yl)pyridin-2-yl]-5H,6H,7H-cyclopenta[d]pyrimidin-4-yl})amino]acetamide], the pEC50 was determined as 7.6.
Then `C[C@H]1C[C@@H](Oc2ccnc(-c3nc4c(c(N(C)CC(=O)NC(C)(C)C)n3)CCC4)c2)CN1C` [Compound 502, N-tert-butyl-2-{[2-(4-{[(3R,5S)-1,5-dimethylpyrrolidin-3-yl]oxy}pyridin-2-yl)-5H,6H,7H-cyclopenta[d]pyrimidin-4-yl](methyl)amino}acetamide], with 8.2; and `CN(CC(=O)NC(C)(C)C)c1nc(-c2cc3[nH]ncc3cn2)nc2c1CCC2` [Compound 176, N-tert-butyl-2-[methyl(2-{1H-pyrazolo[4,3-c]pyridin-6-yl}-5H,6H,7H-cyclopenta[d]pyrimidin-4-yl)amino]acetamide], with 7.8.
Then `COc1ccc(NC(=O)CN(C)c2nc(-c3cc(O[C@H]4CCOC4)ccn3)nc3c2CCC3)cn1` [Compound 347], with 7.6; and `CN(CC(=O)NC1CCCCC1)c1nc(-c2cc(OCCO)ccn2)nc2c1CCC2` [Compound 144, N-cyclohexyl-2-({2-[4-(2-hydroxyethoxy)pyridin-2-yl]-5H,6H,7H-cyclopenta[d]pyrimidin-4-yl}(methyl)amino)acetamide], with 7.5.
Then `C[C@H](C(=O)Nc1cccc(F)c1)N(C)c1nc(-c2cc(OCCO)ccn2)nc2c1CCC2` [Compound 251, (2R)—N-(3-fluorophenyl)-2-({2-[4-(2-hydroxyethoxy)pyridin-2-yl]-5H,6H,7H-cyclopenta[d]pyrimidin-4-yl}(methyl)amino)propanamide], with 8.3.
Turning to `CN(CC(=O)Nc1cnn(C)c1)c1nc(-c2cc3ccccc3cn2)nc2c1CCC2` [Compound 218, 2-{[2-(isoquinolin-3-yl)-5H,6H,7H-cyclopenta[d]pyrimidin-4-yl](methyl)amino}-N-(1-methyl-1H-pyrazol-4-yl)acetamide], the negative logarithm of the EC50 (pEC50) is given as 7.
On to `[2H]C([2H])([2H])N(CC(=O)NC(C)(C)C)c1nc(-c2cc(OCC(C)(C)O)ccn2)nc2c1CCC2` [Compound 509, N-tert-butyl-2-({2-[4-(2-hydroxy-2-methylpropoxy)pyridin-2-yl]-5H,6H,7H-cyclopenta[d]pyrimidin-4-yl}((2H3)methyl)amino)acetamide], for which the pEC50 is listed as 8.2.
The value for `CN(CC(=O)NC(C)(C)C)c1nc(-c2cc3cn[nH]c3cn2)nc2c1CCC2` [Compound 110, N-tert-butyl-2-[methyl(2-{1H-pyrazolo[3,4-c]pyridin-5-yl}-5H,6H,7H-cyclopenta[d]pyrimidin-4-yl)amino]acetamide] was 7.9; that for `CN(CC(=O)Nc1ccc(F)nc1)c1nc(-c2cc(OC(F)F)ccn2)nc2c1CCC2` [Compound 216, 2-({2-[4-(difluoromethoxy)pyridin-2-yl]-5H,6H,7H-cyclopenta[d]pyrimidin-4-yl}(methyl)amino)-N-(6-fluoropyridin-3-yl)acetamide] was 6.6; that for `CN(CC(=O)Nc1ccc(C(F)(F)F)nc1)c1nc(-c2cc3cn[nH]c3cn2)nc2c1CCC2` [Compound 288, 2-[methyl(2-{1H-pyrazolo[3,4-c]pyridin-5-yl}-5H,6H,7H-cyclopenta[d]pyrimidin-4-yl)amino]-N-[6-(trifluoromethyl)pyridin-3-yl]acetamide] was 7.1.
In turn, `CN(C)CCOc1ccnc(-c2nc3c(c(N(C)CC(=O)NC(C)(C)C)n2)C(C)(C)CC3)c1` [Compound 413, N-tert-butyl-2-[(2-{4-[2-(dimethylamino)ethoxy]pyridin-2-yl}-5,5-dimethyl-5H,6H,7H-cyclopenta[d]pyrimidin-4-yl)(methyl)amino]acetamide] came in with a pEC50 of 8.
The value for `CN(C)CCOc1ccnc(-c2nc3c(c(N(CC(=O)NC(C)(C)C)CC(F)(F)F)n2)CCC3)c1` [Compound 470, N-tert-butyl-2-[(2-{4-[2-(dimethylamino)ethoxy]pyridin-2-yl}-5H,6H,7H-cyclopenta[d]pyrimidin-4-yl)(2,2,2-trifluoroethyl)amino]acetamide] was 7.2; that for `Cc1ccc(NC(=O)CN(C)c2nc(-c3cc4ccccc4cn3)nc3c2CCC3)cn1` [Compound 222, 2-{[2-(isoquinolin-3-yl)-5H,6H,7H-cyclopenta[d]pyrimidin-4-yl](methyl)amino}-N-(6-methylpyridin-3-yl)acetamide] was 7.2.
For `CN(CC(=O)NC1(C)CCOC1)c1nc(-c2cc3cn[nH]c3cn2)nc2c1CCC2` (stereo not shown) [Compound 185, 2-[methyl(2-{1H-pyrazolo[3,4-c]pyridin-5-yl}-5H,6H,7H-cyclopenta[d]pyrimidin-4-yl)amino]-N-(3-methyloxolan-3-yl)acetamide], the pEC50 is reported as 7.2.
Regarding `COc1ccccc1NC(=O)CN(C)c1nc(-c2ccccn2)nc2c1CCC2` [Compound 15, N-(2-methoxyphenyl)-2-{methyl[2-(pyridin-2-yl)-5H,6H,7H-cyclopenta[d]pyrimidin-4-yl]amino}acetamide], the negative logarithm of the EC50 (pEC50) is reported as 6.9.
The value for `CC[C@@H](O)COc1ccnc(-c2nc3c(c(N(C)CC(=O)NC(C)(C)C)n2)CCC3)c1` [Compound 393, N-tert-butyl-2-[(2-{4-[(2R)-2-hydroxybutoxy]pyridin-2-yl}-5H,6H,7H-cyclopenta[d]pyrimidin-4-yl)(methyl)amino]acetamide] was 8.1; that for `CN(CC(=O)NC1CCCC1)c1nc(-c2cc(OCC(C)(C)O)ccn2)nc2c1CCC2` [Compound 421, N-cyclopentyl-2-({2-[4-(2-hydroxy-2-methylpropoxy)pyridin-2-yl]-5H,6H,7H-cyclopenta[d]pyrimidin-4-yl}(methyl)amino)acetamide] was 8.2.
